Reference: patent US20260335298A1, “PHARMACEUTICAL COMBINATION CONTAINING DONEPEZIL AND RIVASTIGMINE FOR PREVENTING, ALLEVIATING OR TREATING DEMENTIA OR COGNITIVE IMPAIRMENT, AND PREPARATION METHOD THEREFOR” (G2GBIO, INC., priority 2022, published 2026)

Columns and labels:
AChE mRNA (APP-H4 cells) = assay: AChE mRNA expression in APP-H4 cell line (qRT-PCR, FIGS. 5 and 6); assay type: cell-based, human; settings: 24 h
Description: An APP-H4 cell line is known as a dementia model cell line in which an abnormal segment of Amyloid Precursor Protein (APP) is increased by β-secretase and Alzheimer's disease and hyperphosphorylation of a Tau protein are induced by introducing a Swedish mutation of APP into human neuroglioblastoma H4 cells. In order to re-verify the effect of combined administration of the donepezil and the rivastigmine on the AChE mRNA expression and the drug combination ratio confirmed through a previous study, APP-H4 cells were treated with the donepezil and the rivastigmine alone or in combination as active ingredients, and the AChE gene expression was analyzed.
Specifically, the APP-H4 cell line was cultured in DMEM including 10% fetal bovine serum and gentamycine. Gene expression comparative analysis was performed by treating cells with donepezil 50 (19 μg/ml) μM alone or with donepezil 50 μM and rivastigmine 1 or 5 (1.25 μg/ml) μM as a final concentration in combination and performing qRT-PCR as in the previous experiment method (primers are shown in Table 4 below).
APP-H4 cells were treated with the donepezil and the rivastigmine alone or in combination and cultured for 24 hours, and then the AChE mRNA expression level was measured by qRT-PCR method.

AChE = settings: patients taking donepezil in a long-term; cited from earlier work
[1] = tested on: AChE mRNA (SH-SY5Y cells); assay: AChE mRNA expression in SH-SY5Y cell line (qRT-PCR, FIGS. 2 to 4); assay type: cell-based, human
Procedure: Specifically, the SH-SY5Y cell line was cultured in a 6-well plate (6×10^5/well) using high-glucose Dulbecco's modified Eagle medium (DMEM) added with 10% fetal bovine serum and penicillin-streptomycin. SH-SY5Y cells were treated with the donepezil at final concentrations of 10, 20, 30, 40 (15.2 μg/ml) μM, or the rivastigmine at 0.01, 0.1, 0.5, 1, 5 (1.25 μg/ml) μM and cultured for 24 hours, and then, a total RNA was extracted from each cell using TRIzol, and cDNA was synthesized using a SuperScriptIII cDNA synthesis kit. Quantitative real-time PCR (qRT-PCR) was performed using the synthesized cDNA and primers and SYBR Green in Table 3 below using QuantStudio 3. In order to confirm amplification and accumulation of a target gene in real time, the qRT-PCR was performed under a condition that a cycle of 95° C. for 15 seconds and 60° C. for 1 minute was reacted 40 times after an initial denaturation reaction was performed at 50° C. for 2 minutes and 95° C. for 10 minutes.
A gene expression level amplified by the Comparative Ct Method which is one of methods for quantifying a specific gene expression level was calculated, and analysis results are shown in FIGS. 2 to 4.
[Relational Expression of AChE mRNA Expression Level Analysis for Each Sample]
ΔCt value=Ct value of AChE in each sample−Ct value of reference gene (GAPDH) in the sample.
(Here, Ct refers to a cycle number in which amplification begins to increase clearly during a PCR process.)
Specifically, the SH-SY5Y cell line was cultured in a 6-well plate (6×10^5/well) using DMEM added with 10% fetal bovine serum and penicillin-streptomycin. Gene expression comparative analysis was performed by treating the SH-SY5Y cells with donepezil alone or with donepezil and rivastigmine in combination and performing qRT-PCR as in the previous experiment method.
Specifically, the gene expression comparative analysis was performed by treating the SH-SY5Y cells with donepezil 20 μM alone and with donepezil 20 μM and rivastigmine 0.1, 0.5, 1, and 5 μM as a final concentration in combination and performing qRT-PCR as in the previous experiment method.

SMILES: COc1cc2c(cc1OC)C(=O)C(CC1CCN(Cc3ccccc3)CC1)C2 (stereo not shown) [donepezil]
- AChE expression (AChE mRNA (APP-H4 cells); 50 μM donepezil, FIG. 6): increased
- AChE activity and quantity (AChE): increases
- AChE mRNA expression ([1]; 5 μM (1.9 μg/ml) donepezil alone, FIG. 3): increased
- AChE mRNA expression ([1]; donepezil alone, beyond 20 μM (30, 40 μM), 24 h, FIG. 2): no difference
- AChE mRNA expression ([1]; donepezil alone, up to 20 μM, 24 h, FIG. 2): dependently increased

SMILES: CCN(C)C(=O)Oc1cccc([C@H](C)N(C)C)c1 [rivastigmine]
- AChE mRNA expression (AChE mRNA (APP-H4 cells); rivastigmine alone, 0.5, 1, or 10 μM, FIG. 5): no effect
- AChE mRNA expression ([1]; rivastigmine alone, 0.01 to 5 μM, 24 h, FIG. 2): no statistically significant change was observed
